Experimental data from PubChem BioAssay (NCI).
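Abbreviation: GI50, concentration required for 50% inhibition of growth. TGI denotes the concentration required for complete inhibition of growth.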

How the values were obtained:
Experiment in all cases: NCI tumour cell line growth inhibition, 384-well format
NCI/ADR-RES ovarian = test system: NCI/ADR-RES ovarian
HL-60(TB) leukemia = test system: HL-60(TB) leukemia
NCI-H522 lung = test system: NCI-H522 lung
HOP-62 NSCLC = test system: HOP-62 NSCLC
CCRF-CEM leukemia = test system: CCRF-CEM leukemia
786-0 renal = test system: 786-0 renal
SR leukemia = test system: SR leukemia
SF-268 CNS = test system: SF-268 CNS
SK-MEL-28 melanoma = test system: SK-MEL-28 melanoma
COLO 205 colon = test system: COLO 205 colon
MDA-MB-435 melanoma = test system: MDA-MB-435 melanoma
CAKI-1 renal = test system: CAKI-1 renal
OVCAR-5 ovarian = test system: OVCAR-5 ovarian
HT29 colon = test system: HT29 colon
HCT-15 colon = test system: HCT-15 colon
K-562 leukemia = test system: K-562 leukemia
NCI-H460 NSCLC = test system: NCI-H460 NSCLC
A498 renal = test system: A498 renal
T-47D breast = test system: T-47D breast
KM12 colon = test system: KM12 colon
MOLT-4 leukemia = test system: MOLT-4 leukemia
SNB-75 CNS = test system: SNB-75 CNS
PC-3 prostate = test system: PC-3 prostate
TK-10 renal = test system: TK-10 renal
UO-31 renal = test system: UO-31 renal
SK-OV-3 ovarian = test system: SK-OV-3 ovarian
HS 578T breast = test system: HS 578T breast
DU-145 prostate = test system: DU-145 prostate
NCI-H322M lung = test system: NCI-H322M lung
U251 glioblastoma = test system: U251 glioblastoma
SNB-19 CNS = test system: SNB-19 CNS
RXF 393 renal = test system: RXF 393 renal
OVCAR-3 ovarian = test system: OVCAR-3 ovarian
MDA-MB-468 breast = test system: MDA-MB-468 breast
HCT-116 colon = test system: HCT-116 colon
MALME-3M melanoma = test system: MALME-3M melanoma
A549 NSCLC = test system: A549 NSCLC
HOP-92 NSCLC = test system: HOP-92 NSCLC
ACHN renal = test system: ACHN renal
IGROV1 ovarian = test system: IGROV1 ovarian
BT-549 breast = test system: BT-549 breast
OVCAR-8 ovarian = test system: OVCAR-8 ovarian
MDA-MB-231 breast = test system: MDA-MB-231 breast
EKVX NSCLC = test system: EKVX NSCLC
SK-MEL-5 melanoma = test system: SK-MEL-5 melanoma
SW-620 colon = test system: SW-620 colon
RPMI-8226 leukemia = test system: RPMI-8226 leukemia

## O=C(NC[C@H](O)CN1CCc2ccccc2C1)c1cc(NC2COC2)ncn1
NCI/ADR-RES ovarian
  GI50: > 100 µM
  TGI: > 100 µM
HL-60(TB) leukemia
  GI50: > 28.3 µM
  TGI: > 100 µM
NCI-H522 lung
  GI50: > 100 µM
  TGI: > 100 µM
HOP-62 NSCLC
  GI50: > 100 µM
  TGI: > 100 µM
CCRF-CEM leukemia
  GI50: > 100 µM
  TGI: > 100 µM
786-0 renal
  GI50: > 100 µM
  TGI: > 100 µM
SR leukemia
  GI50: 0.117 µM
  TGI: 8.35 µM
SF-268 CNS
  GI50: > 100 µM
  TGI: > 100 µM
SK-MEL-28 melanoma
  GI50: > 100 µM
  TGI: > 100 µM
COLO 205 colon
  GI50: > 100 µM
  TGI: > 100 µM
MDA-MB-435 melanoma
  GI50: > 100 µM
  TGI: > 100 µM
CAKI-1 renal
  GI50: > 100 µM
  TGI: > 100 µM
OVCAR-5 ovarian
  GI50: > 100 µM
  TGI: > 100 µM
HT29 colon
  GI50: > 100 µM
  TGI: > 100 µM
HCT-15 colon
  GI50: > 100 µM
  TGI: > 100 µM
K-562 leukemia
  GI50: > 100 µM
  TGI: > 100 µM
NCI-H460 NSCLC
  GI50: 6 µM
  TGI: > 100 µM
A498 renal
  GI50: > 100 µM
  TGI: > 100 µM
T-47D breast
  GI50: 4.97 µM
  TGI: > 100 µM
KM12 colon
  GI50: > 42.7 µM
  TGI: > 100 µM
MOLT-4 leukemia
  GI50: 0.0768 µM
SNB-75 CNS
  GI50: > 100 µM
  TGI: > 100 µM
PC-3 prostate
  GI50: > 100 µM
  TGI: > 100 µM
TK-10 renal
  GI50: > 100 µM
  TGI: > 100 µM
UO-31 renal
  GI50: > 100 µM
  TGI: > 100 µM
SK-OV-3 ovarian
  GI50: > 100 µM
  TGI: > 100 µM
HS 578T breast
  GI50: > 100 µM
  TGI: > 100 µM
DU-145 prostate
  GI50: > 100 µM
  TGI: > 100 µM
NCI-H322M lung
  GI50: > 100 µM
  TGI: > 100 µM
U251 glioblastoma
  GI50: > 100 µM
  TGI: > 100 µM
SNB-19 CNS
  GI50: > 100 µM
  TGI: > 100 µM
RXF 393 renal
  GI50: > 100 µM
  TGI: > 100 µM
OVCAR-3 ovarian
  GI50: > 69.1 µM
  TGI: > 100 µM
MDA-MB-468 breast
  GI50: > 100 µM
  TGI: > 100 µM
HCT-116 colon
  GI50: > 100 µM
  TGI: > 100 µM
MALME-3M melanoma
  GI50: > 100 µM
  TGI: > 100 µM
A549 NSCLC
  GI50: > 100 µM
  TGI: > 100 µM
HOP-92 NSCLC
  GI50: > 100 µM
  TGI: > 100 µM
ACHN renal
  GI50: > 100 µM
  TGI: > 100 µM
IGROV1 ovarian
  GI50: > 100 µM
  TGI: > 100 µM
BT-549 breast
  GI50: > 100 µM
  TGI: > 100 µM
OVCAR-8 ovarian
  GI50: > 100 µM
  TGI: > 100 µM
MDA-MB-231 breast
  GI50: > 100 µM
  TGI: > 100 µM
EKVX NSCLC
  GI50: > 100 µM
  TGI: > 100 µM
SK-MEL-5 melanoma
  GI50: > 100 µM
  TGI: > 100 µM
SW-620 colon
  GI50: > 100 µM
  TGI: > 100 µM
RPMI-8226 leukemia
  GI50: > 47.7 µM
  TGI: > 100 µM
